Results reported in the RepoRT retention time repository (doi:10.1016/j.jhazmat.2019.121712).

Assay: Thermo Scientific Acclaim RSLC 120 C18, 100 × 2.1 mm, 2.2 µm, 30 °C; A: 90% water + 10% methanol + 0.01% formic acid + 5 mM ammonium formate; B: methanol + 0.01% formic acid + 5 mM ammonium formate; gradient (min/%B) 0.1/1 3/39 14/99.9 16/99.9
Conditions: stereoisomer not certain

Row | SMILES | LC retention time
1 | Cc1cc(C)c(C2=C(OC(=O)CC(C)(C)C)C3(CCCC3)OC2=O)c(C)c1 | 12.8 min
2 | Cc1nnc2n1-c1ccc([N+](=O)[O-])cc1C(c1ccccc1)=NC2 | 6.91 min
3 | O=C(O)C1C2CCC(O2)C1C(=O)O (stereo not given) | 3.2 min
4 | O=C(Oc1ccccc1)c1ccccc1C(=O)Oc1ccccc1 | 11.2 min
5 | CC[N+]1(C)C2CC(OC(=O)C(CO)c3ccccc3)CC1C1OC12 (stereo not given) | 3.87 min
6 | CCCCCCCn1cc(C(=O)c2cccc3ccccc23)c2ccccc21 | 13.4 min
7 | CCc1cc2c(s1)-n1c(C)nnc1CN=C2c1ccccc1 | 8.43 min
8 | CCOP(=S)(OCC)Oc1cc(C)nc(C(C)C)n1 | 11 min
9 | COP(=O)(OC)OC(C)=CC(=O)OC(C)c1ccccc1 (stereo not given) | 9.39 min
10 | CCCCCCCCc1ccc(OCCOCCO)cc1 | 14.1 min
11 | CCNC(C)C(O)c1ccc(O)c(O)c1 (stereo not given) | 1.99 min
12 | CCCCC(CC)CN1C(=O)C2C3C=CC(C3)C2C1=O (stereo not given) | 11.6 min
13 | C1=CCC(c2cccnc2)NC1 (stereo not given) | 2.68 min
14 | CN(C)C(CSS(=O)(=O)c1ccccc1)CSS(=O)(=O)c1ccccc1 | 9.6 min
15 | CCC(CC)Nc1c([N+](=O)[O-])cc(C)c(C)c1[N+](=O)[O-] | 12.8 min
16 | Cn1c([N+](=O)[O-])cnc1COC(N)=O | 3.55 min
17 | CCSCc1ccccc1OC(=O)NC | 7.7 min
18 | CC=CC(=O)Oc1c(C(C)CCCCCC)cc([N+](=O)[O-])cc1[N+](=O)[O-] (stereo not given) | 13.1 min
19 | CCOP(=S)(Oc1cnc(C(C)(C)C)nc1)OC(C)C (stereo not given) | 12.3 min
20 | COc1cc2c(cc1OC)C13CCN4CC5=CCOC6CC(=O)N2C1C6C5CC43 (stereo not given) | 4.21 min
21 | COC1CC(CC2CCC(C)C(C(C)C(=O)O)O2)OC2(OC(C)(C3CCC(C)(C4OC(C5OC(O)(CO)C(C)CC5C)CC4C)O3)CC2C)C1C (stereo not given) | 13.9 min
22 | COC(=O)NC(C(=O)NC(Cc1ccccc1)C(O)CN(Cc1ccc(-c2ccccn2)cc1)NC(=O)C(NC(=O)OC)C(C)(C)C)C(C)(C)C (stereo not given) | 10.9 min

Row | SMILES | LC retention time
23 | CNC1C(C)OC(OC2C(C)OC(OC3C(C)=CCC4CC(CC5(C=CC(C)C(C(C)C)O5)O4)OC(=O)C4C=C(C)C(O)C5OCC(=CC=CC3C)C45O)CC2OC)CC1OC (stereo not given) | 12 min
24 | Oc1ccc2c3c1OC1C(O)CCC4(O)C(C2)N(CC2CCC2)CCC314 (stereo not given) | 4.17 min
25 | CCCC(NC(C)C(=O)N1C(C(=O)O)CC2CCCCC21)C(=O)OCC (stereo not given) | 13.2 min
26 | CCCCCCC(C)(C)c1ccc(C2CCCC(O)C2)c(O)c1 (stereo not given) | 13.1 min
27 | CN(C)CCc1c[nH]c2cccc(O)c12 | 3.29 min
28 | CCCCCCCCCCOc1cc2c(=O)c(C(=O)OCC)c[nH]c2cc1OCC | 13.4 min
29 | Cc1c(N(C)C)c(=O)n(-c2ccccc2)n1C | 5.21 min
30 | CCOC(=O)C1=NOC(c2ccccc2)(c2ccccc2)C1 | 10.7 min
31 | CNC(=O)Oc1cccc2ccccc12 | 7.46 min
32 | CC(C)N(C(=O)CS(=O)(=O)O)c1ccccc1 | 5.46 min
33 | Cc1ncc([N+](=O)[O-])n1CCCO | 4.21 min
34 | COc1ccc2c3c1OC1C(O)C=CC4C(C2)N(C)CCC341 (stereo not given) | 3.4 min
35 | c1ccc(Nc2ccccc2)cc1 | 10.1 min
36 | CCc1cccc(C)c1N1C(=O)COCC1C (stereo not given) | 7.89 min
37 | CCCCN1CCCCC1C(=O)Nc1c(C)cccc1C (stereo not given) | 6.18 min
38 | CCCCC(CC)COC(=O)c1ccccc1C(=O)OCC(CC)CCCC (stereo not given) | 15 min
39 | CC(CN(C)C)CN1c2ccccc2Sc2ccccc21 (stereo not given) | 8.1 min
40 | CCc1cccc(C)c1N(C(=O)CS(=O)(=O)O)C(C)COC (stereo not given) | 7.34 min
41 | Cc1cnc(C(=O)NCCc2ccc(S(=O)(=O)NC(=O)NC3CCCCC3)cc2)cn1 | 8.11 min
42 | CC(C)=CC1C(C(=O)OCN2C(=O)C3=C(CCCC3)C2=O)C1(C)C (stereo not given) | 12.2 min
43 | CCCCSP(=O)(SCCCC)SCCCC | 13.4 min
44 | CC(CC(c1ccccc1)c1ccccc1)NC(C)(C)C (stereo not given) | 7.91 min

Row | SMILES | LC retention time
45 | CN(C)CCOc1ccccc1Cc1ccccc1 | 7.29 min
46 | O=C1c2ccccc2C(=O)C1C(=O)C(c1ccccc1)c1ccccc1 | 8.6 min
47 | CC(C)(C)c1ccc(C(O)CCCN2CCC(C(O)(c3ccccc3)c3ccccc3)CC2)cc1 (stereo not given) | 9.69 min
48 | CCOC(=O)CC(SP(=O)(OC)OC)C(=O)OCC (stereo not given) | 7.01 min
49 | CCOC(=O)C(CCc1ccccc1)NC1CCCN2CCCC(C(=O)O)N2C1=O (stereo not given) | 7.94 min
50 | CCCCCn1cc(C(=O)c2ccc(OC)c3ccccc23)c2ccccc21 | 12.7 min
51 | CCCSP(=S)(OCC)Oc1ccc(SC)cc1 (stereo not given) | 12.8 min
52 | CC(C)N1C(=O)N(c2ccccc2)CSC1=NC(C)(C)C | 12.2 min
53 | CCCCCCCCCCCC(CC1OC(=O)C1CCCCCC)OC(=O)C(CC(C)C)NC=O (stereo not given) | 14.6 min
54 | Nc1ccc(S(=O)(=O)c2ccc(N)cc2)cc1 | 4.13 min
55 | CCC(c1cccc(O)c1)C(C)CNC (stereo not given) | 5.14 min
56 | COc1ccc2c(c1)[nH]c1c(C)nccc12 | 5.34 min
57 | Cc1cccc(C)c1NC(=O)C1CCCCN1C (stereo not given) | 4.66 min
58 | COC(=O)c1ccccc1S(=O)(=O)NC(=O)Nc1nc(C)cc(C)n1 | 6.92 min
59 | COc1ccc2nc(S(=O)Cc3ncc(C)c(OC)c3C)[nH]c2c1 (stereo not given) | 7.81 min
60 | CNC(=O)ON=C(SC)C(=O)N(C)C | 3.77 min
61 | Nc1ccc(S(=O)(=O)Nc2ncccn2)cc1 | 3.48 min
62 | CN1CCN2c3ncccc3Cc3ccccc3C2C1 (stereo not given) | 5.29 min
63 | Cn1nc2ccccc2n1 | 5.11 min
64 | CCC(=O)C1(c2cccc(O)c2)CCN(C)CC1 | 4.26 min
65 | CC(CCc1ccc(O)cc1)NCC(O)c1ccc(O)cc1 (stereo not given) | 4.39 min
66 | CNC(=O)Oc1cc(C)c(S(C)=O)c(C)c1 (stereo not given) | 4.86 min

Row | SMILES | LC retention time
67 | CCN(CC)C(=O)C1C=C2c3cccc4c3C(O)(CC2N(C)C1)C(=O)N4 (stereo not given) | 4.23 min
68 | CC1=C(C(=O)O)N2C(=O)C(NC(=O)C(N)c3ccccc3)C2SC1 (stereo not given) | 4.08 min
69 | CCC1(c2cccc(O)c2)CCCCN(C)C1 (stereo not given) | 4.74 min
70 | CC=CCC1=C(C)C(OC(=O)C2C(C=C(C)C(=O)OC)C2(C)C)CC1=O (stereo not given) | 11.6 min
71 | CC12CCC3C4CCC(=O)C=C4CCC3C1CCC2OC(=O)CCc1ccccc1 (stereo not given) | 13.6 min
72 | CCOC(=O)NCCOc1ccc(Oc2ccccc2)cc1 | 10.6 min
73 | CC1(OC(=O)C=Cc2ccccc2)CC(O)C2(O)C=COC(OC3OC(CO)C(O)C(O)C3O)C12 (stereo not given) | 8.25 min
74 | CCCCCc1cc(O)c2c(c1)OC(C)(C)C1CCC(C(=O)O)=CC21 (stereo not given) | 12.5 min
75 | CC(=O)SC1CC2=CC(=O)CCC2(C)C2CCC3(C)C(CCC34CCC(=O)O4)C12 (stereo not given) | 9.24 min
76 | CNCC1CCCCC1(O)c1cccc(O)c1 (stereo not given) | 4.28 min
77 | CCN(CC)CC(C)(C)COC(=O)c1ccc(N)cc1 | 4.24 min
78 | CN1CCCC1Cc1c[nH]c2ccc(CCS(=O)(=O)c3ccccc3)cc12 (stereo not given) | 5.51 min
79 | CCN(CC)CCN1c2ccccc2Sc2ccccc21 | 7.76 min
80 | C=CCN1CCC23c4c5ccc(O)c4OC2C(O)C=CC3C1C5 (stereo not given) | 3.39 min
81 | CN1C2CCC1C(C(=O)O)C(OC(=O)c1ccccc1)C2 (stereo not given) | 4.68 min
82 | c1ccc2scnc2c1 | 6.88 min
83 | CCCc1nn(C)c2c(=S)nc(-c3cc(S(=O)(=O)N4CC(C)NC(C)C4)ccc3OCC)[nH]c12 (stereo not given) | 9.91 min
84 | CNC(C)C(=O)c1ccc2c(c1)OCO2 (stereo not given) | 3.81 min
85 | C=CCc1ccccc1OCC(O)CNC(C)C (stereo not given) | 6.71 min
86 | CC=CC(=O)N(CC)C(CC)C(=O)N(C)C (stereo not given) | 6.13 min
87 | CN1CCN2c3ncc(O)cc3Cc3ccccc3C2C1 (stereo not given) | 4.54 min
88 | CC(C)=CCN1CCC2(C)c3cc(O)ccc3CC1C2C (stereo not given) | 5.46 min

Row | SMILES | LC retention time
89 | CCOP(=S)(Oc1ccc([N+](=O)[O-])cc1)c1ccccc1 (stereo not given) | 11.7 min
90 | CCSC(=O)N(CC)C1CCCCC1 | 11.7 min
91 | Cc1ccccc1C(OCCN(C)C)c1ccccc1 (stereo not given) | 7.44 min
92 | CC(CS)C(=O)N1CCCC1C(=O)O (stereo not given) | 4.59 min
93 | CCOC(=O)CCN(SN(C)C(=O)Oc1cccc2c1OC(C)(C)C2)C(C)C | 11.9 min
94 | COc1ccc(CNC(=O)c2cc([N+](=O)[O-])ccc2NC(C)CO)cc1OC (stereo not given) | 7.8 min
95 | C#CC1(OC(C)=O)CCC2C3CCC4=CC(=O)CCC4C3CCC21C (stereo not given) | 10.8 min
96 | COc1ccccc1CC(=O)c1cn(CCC2CCCCC2)c2ccccc12 | 13 min
97 | CN(C)CCC(c1ccccc1)c1ccccn1 (stereo not given) | 4.98 min
98 | CN1CCC(=C2c3ccccc3CCc3sccc32)CC1 | 7.86 min
99 | COc1ccc(CCNCCCC(C#N)(c2ccc(OC)c(OC)c2)C(C)C)cc1OC (stereo not given) | 6.96 min
100 | CCNC(=O)C(C)OC(=O)Nc1ccccc1 (stereo not given) | 6.58 min
101 | CNCC(O)c1cccc(O)c1 (stereo not given) | 1.93 min
102 | Cc1ccccc1CC(C)N (stereo not given) | 5.17 min
103 | Nc1nc(N)nc(NC2CC2)n1 | 2.78 min
104 | O=C1OC(c2ccc(O)cc2)(c2ccc(O)cc2)c2ccccc21 | 7.06 min
105 | CNC(C)Cc1cccs1 (stereo not given) | 3.69 min
106 | CC(C)N(Cc1ccccc1)C(=O)C(C)(C)C | 10.2 min
107 | CCc1nnc(NS(=O)(=O)c2ccc(N)cc2)s1 | 4.81 min
108 | O=c1[nH]cnc2[nH]ncc12 | 2.19 min
109 | CCNc1nc(NC(C)CC)nc(OC)n1 (stereo not given) | 8.79 min
110 | CC(Cc1ccc(O)cc1)NCC(O)c1cc(O)cc(O)c1 (stereo not given) | 3.61 min
